Results taken from PubChem BioAssay (NCI).
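Each compound was tested at five concentrations against cells in 96-well plates for 48 hours. TGI: concentration producing complete growth inhibition.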

How the values were obtained:
Assay in all cases: NCI-60 cell line screen, 48 h
[1] = test system: CCRF-CEM leukemia
[2] = test system: COLO 205 colon
[3] = test system: HCC-2998 colon
[4] = test system: HL-60(TB) leukemia
[5] = test system: MDA-MB-231 breast
[6] = test system: MDA-MB-435
[7] = test system: SR leukemia
[8] = test system: SW-620 colon

Row | SMILES | TGI [1] | TGI [2] | TGI [3] | TGI [4] | TGI [5] | TGI [6] | TGI [7] | TGI [8]
1 | N#Cc1ccc(Oc2nc3ccc(C(F)(F)F)cc3nc2-c2ccccc2)cc1 | 44.7 µM | 50.9 µM | 32.3 µM | 46.3 µM | 36.8 µM | 33.8 µM | 9.86 µM | 35.7 µM
2 | Clc1c(C(Cl)(Cl)Cl)nsc1N1CCCCC1 | 40.5 µM | 30.5 µM | 47.9 µM | 48.2 µM | 77.5 µM | 66.1 µM | 36.5 µM | > 100 µM
3 | CC(=O)Oc1ccc(/C=C/C(=O)O[C@H]2CCCC[C@@H]2OC(=O)/C=C/c2ccc(OC(C)=O)c(OC(C)=O)c2)cc1OC(C)=O | 16.9 µM | 46.6 µM | 32.6 µM |  | > 100 µM | 32.7 µM | > 100 µM | 10.6 µM
4 | Cn1c(=O)c2c(nc(Nc3ccc(Cl)cc3)n3c(=O)n(-c4ccccc4)c(=O)n23)n(C)c1=O | > 100 µM | > 100 µM | > 100 µM | > 100 µM | > 100 µM | > 100 µM | > 100 µM | > 100 µM
5 | COc1cc2c(cc1OC)-c1cc3cc(OC)c(OC)cc3c(=O)n1CC2 | > 100 µM | > 100 µM | > 100 µM | > 100 µM | > 70.4 µM | > 100 µM | > 100 µM | > 100 µM
6 | CC(C)OC(=O)[C@@H](O)[C@H](CO)C1=CC([Si](C)(C)c2ccccc2)=CON1 |  | > 100 µM | > 100 µM |  | > 100 µM | > 100 µM | > 100 µM | > 100 µM
7 | CC(Cc1ccccc1)NC1=NCCO1 (centres undefined) |  | 34.5 µM | 71 µM |  | 30.1 µM |  | 63.5 µM | > 100 µM
8 | C=C(C(=O)OC)c1cc2ccccc2n1S(=O)(=O)c1ccccc1 | 4.18 µM | 3.82 µM | 8.35 µM | 10.2 µM | 6.16 µM | 7.28 µM | > 100 µM | 4.63 µM
9 | CCOc1ccc2nc(NC(NC(=O)c3cccnc3)(C(F)(F)F)C(F)(F)F)sc2c1 | 67.9 µM | > 100 µM | 84.3 µM | 94.8 µM | > 100 µM | 65.4 µM | > 100 µM | > 100 µM
10 | N#Cc1nc(CCC(c2nc(C#N)c(N)o2)N2C(=O)c3ccccc3C2=O)oc1N (centres undefined) |  | > 100 µM | > 100 µM | > 100 µM | > 100 µM | > 100 µM | > 100 µM | > 100 µM
11 | NC1CC(=O)c2sccc21 (centres undefined) | > 100 µM | > 100 µM | > 100 µM |  | > 100 µM | > 100 µM | > 100 µM | > 100 µM
12 | Nc1ccc(Oc2ccc(C34CC5CC6C3CC3CC4C(C5)C6(c4ccc(Oc5ccc(N)c(O)c5)cc4)C3)cc2)cc1O | 40.3 µM | 2.85 µM | 7.57 µM | 3.27 µM | 14.9 µM | 29.3 µM | 8.49 µM | > 54.8 µM
13 | CCN(CC)C(=O)N1CN(c2ccccc2)C2(CCN(CCCSc3ccc(F)cc3)CC2)C1=O | > 100 µM |  |  | 19.4 µM |  | 42.5 µM | 18 µM | 43 µM
14 | c1ccc2c(c1)CC1COc3ccccc3C1O2 (centres undefined) | > 100 µM | > 100 µM | > 100 µM | > 100 µM | > 100 µM | > 100 µM | > 100 µM | > 100 µM
15 | CC1(C)CCC(=O)NC1CC(=O)CC1NC(=O)CCC1(C)C (centres undefined) | > 100 µM | > 100 µM | > 100 µM | > 100 µM | > 100 µM | > 100 µM | > 100 µM | > 100 µM
16 | CC(=O)/C=C(\O)c1[nH]c(C(=O)O)cc1C1CCN(Cc2ccccc2)C1=O (centres undefined) |  | 42.9 µM | 46.4 µM |  | > 100 µM | > 100 µM |  | > 100 µM
17 | Cc1cc2nc(N3C(=O)/C(=C/c4ccc(Cl)cc4)N=C3c3ccccc3)sc2cc1C | 38.7 µM | 43.3 µM | 48.5 µM | 51.7 µM | > 100 µM | 30.7 µM | > 100 µM | > 100 µM
18 | CCN(CC)CCCOc1cc2c(cc1OC)C(=O)N1CCC[C@H]1C=N2 | 87.5 µM | 38.6 µM |  | > 100 µM | > 100 µM | 59.6 µM | > 100 µM | 33.2 µM
19 | C(=C\c1cc(-c2ccc3ccccc3n2)nc2ccc3ccccc3c12)/c1ccc2ccccc2n1 | > 100 µM | > 100 µM | > 100 µM | > 100 µM | > 100 µM | > 100 µM | > 100 µM | > 100 µM
20 | CCOC(=O)CSc1[nH]c(NC(=S)Nc2ccccc2)c(C(N)=O)c1C(N)=O | > 10 µM | > 10 µM | > 10 µM | 4.78 µM | > 10 µM | > 10 µM | > 10 µM | > 10 µM
21 | C=CCN(c1cc(OC)c2[nH]cc(C)c2c1[N+](=O)[O-])S(C)(=O)=O | > 100 µM | > 100 µM | > 100 µM | > 100 µM | > 100 µM | > 100 µM | > 100 µM | > 100 µM
22 | O=C(OCc1ccccc1)N1CCN(C(=O)OCc2ccccc2)CCN(C(=O)OCc2ccccc2)CCN(C(=O)OCc2ccccc2)CCN(C(=O)OCc2ccccc2)CC1 |  | > 100 µM | > 100 µM |  | > 100 µM | > 100 µM |  | > 100 µM
23 | COc1ccc(-c2cc(-c3cc(F)c(Cl)cc3Cl)on2)cc1OC | > 100 µM | 92.3 µM |  | 63.4 µM | > 100 µM | 16.9 µM | 13.1 µM | > 100 µM
24 | O=C1C(NCCN2CCOCC2)=C(Cl)C(=O)c2ncccc21 | 1.1 µM |  | 1.94 µM | 0.168 µM | 4.71 µM | 0.343 µM | 3.3 µM | 1.01 µM
25 | COc1ccc(Oc2nc(C#CC(C)(C)O)nc(Oc3ccc(OC)cc3)n2)cc1 | 4.36 µM | 16.9 µM |  | 3.52 µM | 9.93 µM | 17 µM | 3.79 µM | 3.47 µM
